In series [1] the test system is HBV. The series can be described thus: Anti-HBV activity in HepG2.2.15 stable transfected cell line (HBV DNA from secreted virions, realtime PCR). It counts as cell-based, Hepatitis B virus. Particulars: HepG2.2.15 cells; 6 days of treatment; HBV DNA from secreted virions by realtime PCR.
In series [2] the test system is HBV. The series can be described thus: Anti-HBV activity in HepG2.117 inducible HBV producing cell line (intracellular HBV DNA, realtime PCR). It counts as cell-based, Hepatitis B virus. Particulars: HepG2.117 cells (Tet-off), 3 days of treatment, intracellular HBV DNA by realtime PCR.
A further series deals with HepG2 cells. The series can be described thus: Cytotoxicity in HepG2 cells (Resazurin assay). It counts as cell-based. Particulars: incubated 4 days, viability by Resazurin assay.
Series [3] can be described thus: Cytotoxicity in HepG2 cells (Resazurin assay). It counts as cell-based. Particulars: human, incubated 4 days, viability by Resazurin assay. In general terms: Alamar Blue is a resazurin reagent that responds to reducing activity.

Usually EC50 stands for the concentration needed to bring the measured effect to its halfway point. A higher EC50 goes with weaker potency. The term CC50 denotes the concentration giving 50% cytotoxicity. High values mean lower toxicity to the cells, low ones greater toxicity to the cells. For the molecule `Cc1cc(NC(=O)C2CC(C)N(C(=O)C(=O)NC3(C)COC3)C2)ccc1F` (single isomer, unassigned) [Compound 17c, N-(4-fluoro-3-methylphenyl)-5-methyl-1-(2-((3-methyloxetan-3-yl)amino)-2-oxoacetyl)pyrrolidine-3-carboxamide], the EC50 in the series on HBV [1] and with HBV [2] was more than 1000 nM throughout. In the series on HepG2 cells, the CC50 was more than 25000 nM.
Take `CC1C(C(=O)Nc2ccc(F)c(Cl)c2F)CCCN1C(=O)C(=O)N[C@H](C)C(F)(F)F` (single isomer, unassigned) [Compound 35d]: the EC50 with HBV [1] and with HBV [2] was more than 1000 nM each time. The molecule also came in with a CC50 in the series with HepG2 cells of more than 25000 nM.
`CC1C(C(=O)Nc2ccc(F)c(Cl)c2F)CCCN1C(=O)C(=O)N[C@H](C)C(F)(F)F` (single isomer, unassigned) [Compound 35b]: the results for the EC50 in the series with HBV [1] and in the series with HBV [2] were 195 nM and 483 nM, respectively. The same molecule displayed a CC50 in the series on HepG2 cells of more than 25000 nM.
With `CC(C)NC(=O)C(=O)N1CCC(C(=O)Nc2cc(F)c(F)c(Cl)c2)[C@@H]1C` (single isomer, unassigned) [Compound 29b], the EC50 in the series with HBV [1] and in the series on HBV [2] was more than 1000 nM throughout. In the series with HepG2 cells, this molecule came in with a CC50 of more than 25000 nM.
As for `Cc1cc(NC(=O)C2CC(C)N(C(=O)C(=O)NC3(C)COC3)C2)ccc1F` (single isomer, unassigned) [Compound 17d, N-(4-fluoro-3-methylphenyl)-5-methyl-1-(2-((3-methyloxetan-3-yl)amino)-2-oxoacetyl)pyrrolidine-3-carboxamide], the EC50 stood at 70 nM in the series on HBV [1] and 32 nM in the series with HBV [2]. The molecule also returned a CC50 with HepG2 cells of more than 25000 nM.
Taken in the same sequence, the figures for `Cc1cc(NC(=O)C2CC(C)N(C(=O)C(=O)NC3(C)COC3)C2)ccc1F` (single isomer, unassigned) [Compound 17b, N-(4-fluoro-3-methylphenyl)-5-methyl-1-(2-((3-methyloxetan-3-yl)amino)-2-oxoacetyl)pyrrolidine-3-carboxamide] were 918 nM, 796 nM and more than 25000 nM.
In general, melting point refers to the temperature of the solid-liquid transition. As for `C[C@@H](NC(=O)C(=O)N1CC[C@H](C(=O)Nc2cc(F)c(F)c(F)c2)C1)C(F)(F)F` [Compound 32, (3S)-1-[2-oxo-2-[[(1R)-2,2,2-trifluoro-1-methyl-ethyl]amino]acetyl]-N-(3,4,5-trifluorophenyl)pyrrolidine-3-carboxamide], the melting point is 197.3 °C. Besides, in the series on HBV [2] (Hepatitis B virus, HepG2.117, 72 h), the EC50 was 52 nM. Also, in series [3], the CC50 at 4 days is more than 25000 nM.
Turning to `CC1C(C(=O)Nc2ccc(F)c(Cl)c2F)CCCN1C(=O)C(=O)N[C@H](C)C(F)(F)F` (single isomer, unassigned) [Compound 35c], the EC50 with HBV [1] and in the series with HBV [2] was more than 1000 nM each time. Further, the 50% cytotoxic concentration (CC50) in the series with HepG2 cells is more than 25000 nM.

The values are drawn from patent publication US10377709B2, “Carboxamide derivatives and the use thereof as medicaments for the treatment of hepatitis B” (Janssen Sciences Ireland UC, priority 2013, dated 2019).
